Data as given in the NIST ThermoML archive (doi:10.1016/j.fluid.2014.09.014).

Assay: refractive index (other wavelength) (dimensionless); xn = mol fraction of the nth substance listed
Conditions: 101 kPa, Liquid, Standard Abbe refractometry

CC(C)OC(C)C [diisopropyl ether] + CO
Conditions	refractive index
293.15 K, Wavelength=632.8 nm, x2 = 0.804	1.34816
293.15 K, Wavelength=632.8 nm, x2 = 0.807	1.34801
293.15 K, Wavelength=632.8 nm, x2 = 0.8727	1.34273
293.15 K, Wavelength=632.8 nm, x2 = 0.9233	1.3359
293.15 K, Wavelength=632.8 nm, x2 = 0.9253	1.33772
293.15 K, Wavelength=632.8 nm, x2 = 0.9527	1.33457
293.15 K, Wavelength=632.8 nm, x2 = 0.9773	1.33112
293.15 K, Wavelength=632.8 nm, x2 = 0.989	1.33
293.15 K, Wavelength=632.8 nm, x2 = 0.9964	1.32856
293.15 K, Wavelength=644 nm, x2 = 0	1.36644
293.15 K, Wavelength=644 nm, x2 = 0.0423	1.36648
293.15 K, Wavelength=644 nm, x2 = 0.0424	1.3664
293.15 K, Wavelength=644 nm, x2 = 0.082	1.36644
293.15 K, Wavelength=644 nm, x2 = 0.0822	1.36633
293.15 K, Wavelength=644 nm, x2 = 0.1171	1.36619
293.15 K, Wavelength=644 nm, x2 = 0.1271	1.36622
293.15 K, Wavelength=644 nm, x2 = 0.1827	1.36579
293.15 K, Wavelength=644 nm, x2 = 0.2162	1.36556
293.15 K, Wavelength=644 nm, x2 = 0.251	1.36579
293.15 K, Wavelength=644 nm, x2 = 0.3298	1.36482
293.15 K, Wavelength=644 nm, x2 = 0.3577	1.36338
293.15 K, Wavelength=644 nm, x2 = 0.4497	1.36251
293.15 K, Wavelength=644 nm, x2 = 0.4525	1.36301
293.15 K, Wavelength=644 nm, x2 = 0.5543	1.36055
293.15 K, Wavelength=644 nm, x2 = 0.609	1.35745
293.15 K, Wavelength=644 nm, x2 = 0.6529	1.35595
293.15 K, Wavelength=644 nm, x2 = 0.7504	1.35211
293.15 K, Wavelength=644 nm, x2 = 0.804	1.34788
293.15 K, Wavelength=644 nm, x2 = 0.807	1.34773
293.15 K, Wavelength=644 nm, x2 = 0.8727	1.34246
293.15 K, Wavelength=644 nm, x2 = 0.9233	1.33564
293.15 K, Wavelength=644 nm, x2 = 0.9253	1.33746
293.15 K, Wavelength=644 nm, x2 = 0.9527	1.33431
293.15 K, Wavelength=644 nm, x2 = 0.9773	1.33086
293.15 K, Wavelength=644 nm, x2 = 0.989	1.32975
293.15 K, Wavelength=644 nm, x2 = 0.9964	1.32831
293.15 K, Wavelength=706.5 nm, x2 = 0	1.36501
293.15 K, Wavelength=706.5 nm, x2 = 0.0423	1.36504
293.15 K, Wavelength=706.5 nm, x2 = 0.0424	1.36476
293.15 K, Wavelength=706.5 nm, x2 = 0.082	1.365
293.15 K, Wavelength=706.5 nm, x2 = 0.0822	1.36487
293.15 K, Wavelength=706.5 nm, x2 = 0.1171	1.36476
293.15 K, Wavelength=706.5 nm, x2 = 0.1271	1.36479
293.15 K, Wavelength=706.5 nm, x2 = 0.1827	1.36436
293.15 K, Wavelength=706.5 nm, x2 = 0.2162	1.36414
293.15 K, Wavelength=706.5 nm, x2 = 0.251	1.36436
293.15 K, Wavelength=706.5 nm, x2 = 0.3298	1.3634
293.15 K, Wavelength=706.5 nm, x2 = 0.3577	1.36197
293.15 K, Wavelength=706.5 nm, x2 = 0.4497	1.3611
293.15 K, Wavelength=706.5 nm, x2 = 0.4525	1.3616
293.15 K, Wavelength=706.5 nm, x2 = 0.522	1.35939
293.15 K, Wavelength=706.5 nm, x2 = 0.5543	1.35915
293.15 K, Wavelength=706.5 nm, x2 = 0.609	1.35606
293.15 K, Wavelength=706.5 nm, x2 = 0.6529	1.35456
293.15 K, Wavelength=706.5 nm, x2 = 0.804	1.34652
293.15 K, Wavelength=706.5 nm, x2 = 0.807	1.34638
293.15 K, Wavelength=706.5 nm, x2 = 0.8727	1.34113
293.15 K, Wavelength=706.5 nm, x2 = 0.9233	1.33435
293.15 K, Wavelength=706.5 nm, x2 = 0.9253	1.33617
293.15 K, Wavelength=706.5 nm, x2 = 0.9527	1.33303
293.15 K, Wavelength=706.5 nm, x2 = 0.9773	1.32963
293.15 K, Wavelength=706.5 nm, x2 = 0.989	1.32951
293.15 K, Wavelength=706.5 nm, x2 = 0.9964	1.32708
298.15 K, Wavelength=40.47 nm, x2 = 0	1.37607
298.15 K, Wavelength=40.47 nm, x2 = 0.0423	1.37664
298.15 K, Wavelength=40.47 nm, x2 = 0.0424	1.37602
298.15 K, Wavelength=40.47 nm, x2 = 0.082	1.37599
298.15 K, Wavelength=40.47 nm, x2 = 0.0822	1.37598
298.15 K, Wavelength=40.47 nm, x2 = 0.1171	1.3758
298.15 K, Wavelength=40.47 nm, x2 = 0.1271	1.37584
298.15 K, Wavelength=40.47 nm, x2 = 0.1827	1.37543
298.15 K, Wavelength=40.47 nm, x2 = 0.2162	1.37664
298.15 K, Wavelength=40.47 nm, x2 = 0.251	1.37352
298.15 K, Wavelength=40.47 nm, x2 = 0.3298	1.37448
298.15 K, Wavelength=40.47 nm, x2 = 0.3577	1.37299
298.15 K, Wavelength=40.47 nm, x2 = 0.4497	1.37205
298.15 K, Wavelength=40.47 nm, x2 = 0.4525	1.37262
298.15 K, Wavelength=40.47 nm, x2 = 0.522	1.37025
298.15 K, Wavelength=40.47 nm, x2 = 0.5543	1.3698
298.15 K, Wavelength=40.47 nm, x2 = 0.609	1.36677
298.15 K, Wavelength=40.47 nm, x2 = 0.6529	1.36523
298.15 K, Wavelength=40.47 nm, x2 = 0.7504	1.36122
298.15 K, Wavelength=40.47 nm, x2 = 0.804	1.35681
298.15 K, Wavelength=40.47 nm, x2 = 0.807	1.3567
298.15 K, Wavelength=40.47 nm, x2 = 0.8727	1.35132
298.15 K, Wavelength=40.47 nm, x2 = 0.9233	1.34416
298.15 K, Wavelength=40.47 nm, x2 = 0.9253	1.34607
298.15 K, Wavelength=40.47 nm, x2 = 0.9527	1.34281
298.15 K, Wavelength=40.47 nm, x2 = 0.9773	1.33922
298.15 K, Wavelength=40.47 nm, x2 = 0.989	1.33798
298.15 K, Wavelength=40.47 nm, x2 = 0.9964	1.33656
298.15 K, Wavelength=435.8 nm, x2 = 0	1.37308
298.15 K, Wavelength=435.8 nm, x2 = 0.0423	1.37305
